Experimental data taken from the supplement of paper PMC10627819.

Assays:
S. aureus DSM 20231 = assay: Bliss interaction score (quartile over a dose matrix) (fitness difference); higher = more antagonism (negative = synergy)
Outline: (§1)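 The Bliss score is observed minus expected fitness, where expected fitness is the product of the single-drug fitness values inferred from the combination data. Fitness is the OD595 at the onset of stationary phase over the plate's robust no-drug mean, capped at 1. Scores are summarised by quartiles over technical, biological and donor/recipient replicates.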

S. pneumoniae D39V [1] = assay: as above
Outline: as §1

S. aureus Newman = assay: as above
Outline: as §1

B. subtilis 168 = assay: as above
Outline: as §1

S. pneumoniae D39V [2] = assay: fitness (endpoint OD595 vs no drug) (fraction); higher = more growth
Outline: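 At 37 °C, bacteria in TSB, LB Lennox or CY were grown in 384-well plates from a starting OD595 of 0.01. OD595 was measured every 30 min for 14 h, with the first reading used as background. Fitness is the optical density at the switch to stationary phase as a fraction of the robust mean of no-drug control wells, capped at 1.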
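Wherever Bliss interaction score (quartile over a dose matrix) is given: first quartile when negative (synergy) and third quartile when positive (antagonism).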
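Wherever fitness (endpoint OD595 vs no drug) is given: OD595 on entry to stationary phase over no-drug wells; at most 1.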

CC[C@H]1OC(=O)[C@H](C)[C@@H](O[C@H]2C[C@@](C)(OC)[C@@H](O)[C@H](C)O2)[C@H](C)[C@@H](O[C@@H]2O[C@H](C)C[C@H](N(C)C)[C@H]2O)[C@](C)(OC)C[C@@H](C)C(=O)[C@H](C)[C@@H](O)[C@]1(C)O [Clarithromycin] + C[C@H]1COc2c(N3CCN(C)CC3)c(F)cc3c(=O)c(C(=O)O)cn1c23 [Levofloxacin]
Details | Bliss interaction score
B. subtilis 168 | 0.0707
S. aureus DSM 20231 | 0.0901
S. aureus Newman | 0.0872
S. pneumoniae D39V [1] | -0.0537

fitness, S. pneumoniae D39V [2], one replicate
Details | first compound 0.007812 µg/mL | first compound 0.01562 µg/mL | first compound 0.03125 µg/mL
partner 0.2 µg/mL | 0.782 | 0.811 | 0.599
partner 0.4 µg/mL | 0.646 | 0.726 | 0.533
partner 0.8 µg/mL | 0.257 | 0.316 | 0.244

S. pneumoniae D39V [2]
Details | fitness
first compound 0.0625 µg/mL, partner 0.1725 µg/mL | 0.701
first compound 0.0625 µg/mL, partner 0.345 µg/mL | 0.691
first compound 0.0625 µg/mL, partner 0.69 µg/mL | 0.371
first compound 0.07 µg/mL, partner 0.2 µg/mL | 0.139
first compound 0.07 µg/mL, partner 0.4 µg/mL | 0.134
first compound 0.07 µg/mL, partner 0.8 µg/mL | 0.0857
first compound 0.125 µg/mL, partner 0.1725 µg/mL | 0.486
first compound 0.125 µg/mL, partner 0.345 µg/mL | 0.463
first compound 0.125 µg/mL, partner 0.69 µg/mL | 0.349
first compound 0.14 µg/mL, partner 0.2 µg/mL | 0.0726
first compound 0.14 µg/mL, partner 0.4 µg/mL | 0.0532
first compound 0.14 µg/mL, partner 0.8 µg/mL | 0.063
first compound 0.25 µg/mL, partner 0.69 µg/mL | 0.242
first compound 0.28 µg/mL, partner 0.2 µg/mL | 0.0574
first compound 0.28 µg/mL, partner 0.4 µg/mL | 0.0463
first compound 0.28 µg/mL, partner 0.8 µg/mL | 0.0433

CC[C@H]1OC(=O)[C@H](C)[C@@H](O[C@H]2C[C@@](C)(OC)[C@@H](O)[C@H](C)O2)[C@H](C)[C@@H](O[C@@H]2O[C@H](C)C[C@H](N(C)C)[C@H]2O)[C@](C)(OC)C[C@@H](C)C(=O)[C@H](C)[C@@H](O)[C@]1(C)O [Clarithromycin] + C[C@H]1c2cccc(O)c2C(=O)C2=C(O)[C@]3(O)C(=O)C(C(N)=O)=C(O)[C@@H](N(C)C)[C@@H]3[C@@H](O)[C@@H]21 [Doxycycline]
Details | Bliss interaction score
B. subtilis 168 | -0.324
S. aureus DSM 20231 | -0.161
S. aureus Newman | -0.116
S. pneumoniae D39V [1] | -0.107

fitness, S. pneumoniae D39V [2], one replicate
Details | first compound 0.007812 µg/mL | first compound 0.01562 µg/mL | first compound 0.03125 µg/mL | first compound 0.0625 µg/mL | first compound 0.125 µg/mL | first compound 0.25 µg/mL
partner 0.003875 µg/mL | – | – | – | 0.674 | 0.375 | 0.0974
partner 0.00775 µg/mL | – | – | – | 0.736 | 0.317 | 0.115
partner 0.0155 µg/mL | 0.731 | 0.708 | 0.61 | – | – | –
partner 0.031 µg/mL | 0.681 | 0.669 | 0.609 | 0.464 | 0.143 | 0.101
partner 0.062 µg/mL | 0.587 | 0.482 | 0.266 | 0.267 | 0.129 | 0.0712

fitness, S. pneumoniae D39V [2]
Details | first compound 0.0625 µg/mL | first compound 0.07 µg/mL | first compound 0.125 µg/mL | first compound 0.14 µg/mL | first compound 0.25 µg/mL | first compound 0.28 µg/mL
partner 0.0155 µg/mL | 0.574 | 0.0409 | 0.223 | 0.0521 | 0.143 | 0.0358
partner 0.031 µg/mL | – | 0.0283 | – | 0.0438 | – | 0.0338
partner 0.062 µg/mL | – | 0.0302 | – | 0.0541 | – | 0.0267

CC[C@H]1OC(=O)[C@H](C)[C@@H](O[C@H]2C[C@@](C)(OC)[C@@H](O)[C@H](C)O2)[C@H](C)[C@@H](O[C@@H]2O[C@H](C)C[C@H](N(C)C)[C@H]2O)[C@](C)(OC)C[C@@H](C)C(=O)[C@H](C)[C@@H](O)[C@]1(C)O [Clarithromycin] + C[n+]1ccc(-c2cc[n+](C)cc2)cc1 [Paraquat]
Details | Bliss interaction score
B. subtilis 168 | -0.0322
S. aureus DSM 20231 | -0.0525
S. aureus Newman | -0.0377
S. pneumoniae D39V [1] | 0.0803

fitness, S. pneumoniae D39V [2], one replicate
Details | first compound 0.007812 µg/mL | first compound 0.01562 µg/mL | first compound 0.03125 µg/mL | first compound 0.0625 µg/mL | first compound 0.125 µg/mL | first compound 0.25 µg/mL
partner 1.5 µg/mL | 0.899 | 0.836 | 0.603 | 0.771 | 0.597 | 0.274
partner 3 µg/mL | 0.918 | 0.871 | 0.62 | 0.788 | 0.684 | 0.324
partner 6 µg/mL | 0.909 | 0.816 | 0.657 | 0.837 | 0.708 | 0.345

fitness, S. pneumoniae D39V [2]
Details | first compound 0.07 µg/mL | first compound 0.14 µg/mL | first compound 0.28 µg/mL
partner 1.5 µg/mL | 0.171 | 0.129 | 0.0703
partner 3 µg/mL | 0.171 | 0.103 | 0.0937
partner 6 µg/mL | 0.164 | 0.126 | 0.0698

CC[C@H]1OC(=O)[C@H](C)[C@@H](O[C@H]2C[C@@](C)(OC)[C@@H](O)[C@H](C)O2)[C@H](C)[C@@H](O[C@@H]2O[C@H](C)C[C@H](N(C)C)[C@H]2O)[C@](C)(OC)C[C@@H](C)C(=O)[C@H](C)[C@@H](O)[C@]1(C)O [Clarithromycin] + Cc1cc(NS(=O)(=O)c2ccc(N)cc2)no1 [Sulfamethoxazol]
Details | Bliss interaction score
B. subtilis 168 | 0.0784
S. aureus DSM 20231 | 0.0612
S. aureus Newman | -0.0372
S. pneumoniae D39V [1] | 0.0413

fitness, S. pneumoniae D39V [2], one replicate
Details | first compound 0.007812 µg/mL | first compound 0.01562 µg/mL | first compound 0.03125 µg/mL | first compound 0.0625 µg/mL | first compound 0.125 µg/mL | first compound 0.25 µg/mL
partner 1 µg/mL | 0.925 | 0.809 | 0.67 | 0.699 | 0.466 | 0.168
partner 2 µg/mL | 0.917 | 0.825 | 0.665 | 0.813 | 0.664 | 0.315
partner 4 µg/mL | 0.899 | 0.805 | 0.661 | 0.613 | 0.465 | 0.17

fitness, S. pneumoniae D39V [2]
Details | first compound 0.07 µg/mL | first compound 0.14 µg/mL | first compound 0.28 µg/mL
partner 1 µg/mL | 0.119 | 0.0685 | 0.0468
partner 2 µg/mL | 0.11 | 0.0677 | 0.0381
partner 4 µg/mL | 0.1 | 0.0655 | 0.0459
